Measured values reported in PubChem BioAssay AID248 (DTP/NCI, 2004).
Several values for one entry are separate records, joined by “and”; a condition that tells them apart may be missing. Identical values can stand only once. Toxic doses and inconclusive results are not listed.

Tested on: L1210 leukemia ip in BDF1 mice, survival T/C
Test: NCI In Vivo Anticancer Drug Screen. Data for tumor model L1210 Leukemia (intraperitoneal) in B6D2F1 (BDF1) mice
Conditions: endpoint: mean survival time, higher = longer survival
Outline: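 Mice bearing the transplanted tumor received compound or vehicle. Survival of the treated group was divided by that of the vehicle-treated control group to give the ratio.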

[1] = dose: 50.0 mg/kg/injection, schedule: Q01DX001 (ip), vehicle: saline
[2] = dose: 100.0 mg/kg/injection, schedule: Q01DX001 (ip), vehicle: saline
[3] = dose: 200.0 mg/kg/injection, schedule: Q01DX001 (ip), vehicle: saline
[4] = dose: 400.0 mg/kg/injection, schedule: Q01DX001 (ip), vehicle: saline
[5] = dose: 100.0 mg/kg/injection, schedule: Q01DX009 (ip), vehicle: gum acacia
[6] = dose: 100.0 mg/kg/injection, schedule: Q04DX003 (ip), vehicle: gum acacia
[7] = dose: 200.0 mg/kg/injection, schedule: Q01DX009 (ip), vehicle: gum acacia
[8] = dose: 200.0 mg/kg/injection, schedule: Q04DX003 (ip), vehicle: gum acacia
[9] = dose: 400.0 mg/kg/injection, schedule: Q01DX009 (ip), vehicle: gum acacia
[10] = dose: 400.0 mg/kg/injection, schedule: Q04DX003 (ip), vehicle: gum acacia
[11] = dose: 50.0 mg/kg/injection, schedule: Q01DX009 (ip), vehicle: Klucel (hydroxypropylcellulose) (HPC)
[12] = dose: 50.0 mg/kg/injection, schedule: Q04DX003 (ip), vehicle: Klucel (hydroxypropylcellulose) (HPC)
[13] = dose: 100.0 mg/kg/injection, schedule: Q01DX009 (ip), vehicle: Klucel (hydroxypropylcellulose) (HPC)
[14] = dose: 100.0 mg/kg/injection, schedule: Q04DX003 (ip), vehicle: saline
[15] = dose: 200.0 mg/kg/injection, schedule: Q04DX003 (ip), vehicle: saline
[16] = dose: 100.0 mg/kg/injection, schedule: Q04DX003 (ip), vehicle: Klucel (hydroxypropylcellulose) (HPC)
[17] = dose: 200.0 mg/kg/injection, schedule: Q04DX003 (ip), vehicle: Klucel (hydroxypropylcellulose) (HPC)
[18] = dose: 400.0 mg/kg/injection, schedule: Q04DX003 (ip), vehicle: Klucel (hydroxypropylcellulose) (HPC)
[19] = dose: 400.0 mg/kg/injection, schedule: Q04DX003 (ip), vehicle: saline
[20] = dose: 200.0 mg/kg/injection, schedule: Q01DX009 (ip), vehicle: Klucel (hydroxypropylcellulose) (HPC)
[21] = dose: 400.0 mg/kg/injection, schedule: Q01DX009 (ip), vehicle: Klucel (hydroxypropylcellulose) (HPC)
[22] = dose: 100.0 mg/kg/injection, schedule: Q01DX009 (ip), vehicle: saline with Tween-80
[23] = dose: 200.0 mg/kg/injection, schedule: Q01DX009 (ip), vehicle: saline with Tween-80

For `CCOc1ccc(N=[N+]([O-])c2ccc(OCC)cc2)cc1`, the T/C (dose: 100.0 mg/kg/injection, schedule: Q01DX001 (ip), vehicle: saline with Tween-80) was 103 % of control, the T/C (dose: 200.0 mg/kg/injection, schedule: Q01DX001 (ip), vehicle: saline with Tween-80) was 103 % of control and the T/C (dose: 400.0 mg/kg/injection, schedule: Q01DX001 (ip), vehicle: saline with Tween-80) was 92 % of control.

`O=C(O)C12C3(Cl)C4(Cl)C(O)(O)C5(Cl)C3(Cl)C1(Cl)C5(Cl)C42Cl` (stereo not drawn) was tested, and the T/C [1] was 102 % of control, the T/C [2] was 105 % of control and the T/C [3] was 96 % of control. For the same molecule, the T/C [4] was 110 % of control.

For `Cc1c(/C=C(\C#N)c2ccc([N+](=O)[O-])cc2)c(=O)n(-c2ccccc2)n1C`, the T/C [5] was 93 % of control, the T/C [6] was 92 % of control and the T/C [7] was 90 % of control. For the same molecule, the T/C [8] was 105 % of control, the T/C [9] was 89 % of control and the T/C [10] was 95 % of control.

`CCN(CC)COC(=O)C(C)(C)C` was tested, and the T/C (dose: 75.0 mg/kg/injection, schedule: Q01DX001 (ip), vehicle: carboxymethylcellulose (CMC)) was 103 % of control and the T/C (dose: 150.0 mg/kg/injection, schedule: Q01DX001 (ip), vehicle: carboxymethylcellulose (CMC)) was 94 % of control.

In the case of `NC1=NC(=S)C2N=C(N=Nc3ccc(C(=O)NC(CCC(=O)O)C(=O)O)cc3)N=C2N1` (stereo not drawn), the T/C (dose: 1.56 mg/kg/injection, schedule: Q01DX009 (ip), vehicle: Klucel (hydroxypropylcellulose) (HPC)) is reported as 156 % of control and 177 % of control and 194 % of control, the T/C (dose: 3.13 mg/kg/injection, schedule: Q01DX009 (ip), vehicle: Klucel (hydroxypropylcellulose) (HPC)) is reported as 189 % of control and the T/C (dose: 25.0 mg/kg/injection, schedule: Q01DX009 (ip), vehicle: Klucel (hydroxypropylcellulose) (HPC)) is reported as 120 % of control. The T/C [11] was 121 % of control, the T/C [12] was 114 % of control and the T/C [13] was 88 % of control.

`COC(=O)C1C2C=CC(CC2)C1(C)C(=O)OC` (stereo not drawn) was tested, and the T/C (dose: 100.0 mg/kg/injection, schedule: Q04DX003 (ip), vehicle: saline with Tween-80) was 95 % of control, the T/C (dose: 200.0 mg/kg/injection, schedule: Q04DX003 (ip), vehicle: saline with Tween-80) was 101 % of control and the T/C (dose: 400.0 mg/kg/injection, schedule: Q04DX003 (ip), vehicle: saline with Tween-80) was 90 % of control.

In the case of `CNC(C)c1ccc(C)cc1` (stereo not drawn), the T/C (dose: 6.25 mg/kg/injection, schedule: Q01DX009 (ip), vehicle: saline) is reported as 123 % of control, the T/C (dose: 12.5 mg/kg/injection, schedule: Q01DX009 (ip), vehicle: saline) is reported as 95 % of control and the T/C (dose: 25.0 mg/kg/injection, schedule: Q01DX009 (ip), vehicle: saline) is reported as 100 % of control.

For `Cc1ccc(S(=O)(=O)OCC2CC=CCC2COS(=O)(=O)c2ccc(C)cc2)cc1` (stereo not drawn), the T/C [2] was 88 % of control, the T/C [3] was 92 % of control and the T/C [4] was 88 % of control.

With `CCCCN1CCCC(O)C1` (stereo not drawn) the T/C [14] was 97 % of control and the T/C [15] was 104 % of control.

For `Cc1ccc([I+]c2ccccc2C(=O)[O-])c(C)c1`, the T/C [1] was 98 % of control, the T/C [2] was 102 % of control and the T/C [3] was 104 % of control.

`O=C(c1ccccc1Br)C1C(c2ccccc2)N1C1CCCCC1` (stereo not drawn) was tested, and the T/C [12] was 102 % of control, the T/C [16] was 102 % of control and the T/C [17] was 98 % of control. For the same molecule, the T/C [18] was 93 % of control.

With `COc1ccc(-n2c(O)c(N=Nc3ccccc3OC)c(=O)n(-c3ccccc3)c2=S)cc1` the T/C (dose: 50.0 mg/kg/injection, schedule: Q01DX001 (ip), vehicle: Klucel (hydroxypropylcellulose) (HPC)) was 94 % of control, the T/C (dose: 100.0 mg/kg/injection, schedule: Q01DX001 (ip), vehicle: Klucel (hydroxypropylcellulose) (HPC)) was 92 % of control and the T/C (dose: 200.0 mg/kg/injection, schedule: Q01DX001 (ip), vehicle: Klucel (hydroxypropylcellulose) (HPC)) was 92 % of control.

In the case of `CN(C)Cc1ccc(NC(=O)c2ccc(C(=O)Nc3ccc(CN(C)C)cc3)cc2)cc1`, the T/C (dose: 15.0 mg/kg/injection, schedule: Q01DX Z (ip), vehicle: carboxymethylcellulose (CMC)) is reported as 103 % of control, the T/C (dose: 30.0 mg/kg/injection, schedule: Q01DX Z (ip), vehicle: carboxymethylcellulose (CMC)) is reported as 106 % of control and the T/C (dose: 60.0 mg/kg/injection, schedule: Q01DX Z (ip), vehicle: carboxymethylcellulose (CMC)) is reported as 106 % of control. The T/C (dose: 120.0 mg/kg/injection, schedule: Q01DX Z (ip), vehicle: carboxymethylcellulose (CMC)) was 117 % of control.

For `CC(C)N(C(=O)Nc1cccc2ccccc12)c1ccccc1`, the T/C [5] was 97 % of control, the T/C [6] was 110 % of control and the T/C [7] was 96 % of control. The T/C [8] was 102 % of control, the T/C [9] was 99 % of control and the T/C [10] was 104 % of control.

In the case of `CNC(=O)O/N=C(C)/C(C)=N/OC(=O)NC`, the T/C (dose: 100.0 mg/kg/injection, schedule: Q01DX001 (ip), vehicle: other) is reported as 93 % of control, the T/C (dose: 200.0 mg/kg/injection, schedule: Q01DX001 (ip), vehicle: other) is reported as 87 % of control and the T/C (dose: 400.0 mg/kg/injection, schedule: Q01DX001 (ip), vehicle: other) is reported as 87 % of control.

`C=CCSCCC` was tested, and the T/C (dose: 100.0 mg/kg/injection, schedule: Q01DX009 (ip), vehicle: saline) was 90 % of control, the T/C [14] was 96 % of control and the T/C (dose: 200.0 mg/kg/injection, schedule: Q01DX009 (ip), vehicle: saline) was 90 % of control. For the same molecule, the T/C [15] was 104 % of control, the T/C (dose: 400.0 mg/kg/injection, schedule: Q01DX009 (ip), vehicle: saline) was 90 % of control and the T/C [19] was 91 % of control.

With `C/C(N=Nc1ccccc1)=N\Nc1cccc(C(F)(F)F)c1` the T/C [11] was 107 % of control, the T/C [13] was 102 % of control and the T/C [20] was 110 % of control. For the same molecule, the T/C [21] was 102 % of control.

`CC(=O)OC1CCC(C(C)(C)C)CC1` (stereo not drawn) was tested, and the T/C [22] was 98 % of control and the T/C [23] was 95 % of control.

With `NOCc1nnc(Nc2ccccc2)s1` the T/C [22] was 92 % of control and the T/C [23] was 90 % of control.

For `Nc1ccc(Cc2ccc(N)cc2)cc1`, the T/C (dose: 25.0 mg/kg/injection, schedule: Q01DX009 (ip), vehicle: gum acacia) was 95 % of control, the T/C (dose: 50.0 mg/kg/injection, schedule: Q01DX009 (ip), vehicle: gum acacia) was 105 % of control and the T/C [5] was 105 % of control and 112 % of control.

For `CN(C)Cc1cc(C(F)(F)F)ccc1C(O)(c1ccccc1)c1ccccc1`, the T/C (dose: 50.0 mg/kg/injection, schedule: Q01DX001 (ip), vehicle: carboxymethylcellulose (CMC)) was 110 % of control, the T/C (dose: 100.0 mg/kg/injection, schedule: Q01DX001 (ip), vehicle: carboxymethylcellulose (CMC)) was 101 % of control and the T/C (dose: 200.0 mg/kg/injection, schedule: Q01DX001 (ip), vehicle: carboxymethylcellulose (CMC)) was 101 % of control. For the same molecule, the T/C (dose: 400.0 mg/kg/injection, schedule: Q01DX001 (ip), vehicle: carboxymethylcellulose (CMC)) was 98 % of control.

In the case of `COC(=O)c1cc(NC(=O)Nc2ccc(Cl)cc2[N+](=O)[O-])cc(C(=O)OC)c1`, the T/C [13] is reported as 92 % of control, the T/C [20] is reported as 101 % of control and the T/C [21] is reported as 93 % of control.

For `Clc1ccc(C(c2ccc(Cl)cc2)c2ccccn2)cc1`, the T/C [13] was 92 % of control, the T/C [16] was 98 % of control and the T/C [20] was 97 % of control. For the same molecule, the T/C [17] was 95 % of control and the T/C [18] was 97 % of control.

`O=S(=O)(Nc1cc(Cl)ccc1Cl)c1ccc(Cl)cc1` was tested, and the T/C [22] was 92 % of control, the T/C [23] was 102 % of control and the T/C (dose: 400.0 mg/kg/injection, schedule: Q01DX009 (ip), vehicle: saline with Tween-80) was 92 % of control.

For `CN1CCC=C(C(C)(C)O)C1`, the T/C [14] was 101 % of control, the T/C [15] was 100 % of control and the T/C [19] was 106 % of control.

In the case of `Cc1cccc(N=C/C=C/c2ccccc2)c1C`, the T/C [13] is reported as 94 % of control, the T/C [20] is reported as 100 % of control and the T/C [21] is reported as 108 % of control.

With `Cc1cc(=O)[nH]c(N/N=C/C(C)C)n1` the T/C [11] was 95 % of control, the T/C [13] was 95 % of control and the T/C [16] was 95 % of control. For the same molecule, the T/C [20] was 93 % of control and the T/C [17] was 89 % of control.
